In patent US6251898A, “Medical use of fluorenone derivatives for treating and preventing brain and spinal injury” (Questcor Pharmaceuticals, Inc., priority 1999, dated 2001):

Tested on: UC11-MG human astrocytoma cells
Experiment: D-aspartate (excitotoxin) release by hypo-osmotically stressed astrocytoma cells
Assay type: cell-based
Settings: for IC50: Homo sapiens, UC11MG, hypo-osmotic stress, about 145 mOsm, AUC-based, read-out: IC50 value (suppression of excitotoxin / D-aspartate release by stressed astrocyte cells); for Comparative potency: relative to L-644,711 (100% = benchmark); for Fold potency versus L-644,711: inhibition of aspartate release, compared to L-644,711
Source text: The in vitro tests described in this example used UC11-MG human astrocytoma cells, obtained from the University of Cincinnati, and described in Liwnicz et al 1986 and Lomneth et al 1989. Cell culture reagents (including RPMI 1640, fetal bovine serum, trypsin, and gentamicin) were obtained from Gibco (Gaithersburg, Md.). Radiolabelled D-[2,3-^3 H]aspartate was obtained from Amersham Life Sciences (Buckinghamshire, England). ScintiVerse II scintillation fluid was obtained from Fisher Scientific (Pittsburgh, Pa.). All other chemicals were obtained from Sigma Chemical Co. (St. Louis, Mo.). Osmolarities of solutions were measured using the Advance DigiMatic Osmometer Model 3D II (Advanced Instruments Inc., Mass.).
The UC11-MG astrocytoma cells were cultured in 75 ml vented flasks at 37° C. inside a humidified incubator in 5% CO2 /95% air. The cells were grown in RPMI Medium 1640 supplemented with 10% fetal bovine serum and […] gentamicin. At approximately 90% confluence, the cells were detached and suspended using a 0.0625% trypsin solution in Buffer A (137 mM NaCl, 5.37 mM KCl, 5.55 mM glucose, 4.17 mM NaHCO3, and 0.54 mM EDTA disodium salt, pH 7.4). The cells were then plated onto 6-well tissue culture plates at a seeding ratio of 4 plates per flask and 4 ml of cell-media suspension per well. The plated cells were used in experiments the next day at approximately 90% confluence. Plates that appeared to be more than 95% confluent were not used, because higher levels of confluence led to uncontrollable differentials in exposure of the cells to culture media and labelled aspartate. All tests were performed in triplicate. All media collections were done at 5 minute intervals, using pipettes, and were followed by promptly loading fresh buffer into each well before any drying occurred. All buffer samples collected in this manner were loaded into scintillation vials, mixed with 5 ml scintillation fluid, and counted for 1 minute in a scintillation counter (Beckman LS8000, Fullerton, Calif.).
Prior to D-aspartate exposure, the wells were washed three times under sterile conditions with 3 ml of 37° C. Buffer B (122 mM NaCl, 3.3 mM KCl, 1.2 mM CaCl2, 0.4 mM MgSO4, 1.2 mM KH2 PO4, 25 mM Hepes, 10 mM glucose, pH 7.4).
The cells were then loaded with 0.5 μCi/ml of D-aspartate, and incubated at 37° C. for 30 min. Cells were then washed four times with Buffer B, and the last washing fluid was left on the cells. The plates were then placed on an orbital shaker and maintained at 37° C.
Baseline aspartate release levels (prior to drug treatment) were determined by incubating the cells with normal Buffer B (285 mOsm) for 15 minutes, while buffer was collected every 5 minutes.
After the buffer was collected from a well at the 15 minute mark, the next set of normal Buffer B added to that well contained a test compound at a known concentration; each compound was tested over a range of concentrations. Cells were then incubated for two 5 minute intervals with solutions of test compounds in normal Buffer B. In some tests which used buffers containing relatively high concentrations of a test drug with limited solubility in water, DMSO was added to the mixture to increase the solubility of the compound in water.
Beginning at the 25-minute mark, the cells were stimulated to begin releasing aspartate by loading a well with hypo-osmotic buffer, prepared by diluting Buffer B with an equal volume of distilled and deionized H2 O, resulting in an osmolarity of about 145 mOsm. This hypo-osmoticsolution caused the cells to begin taking in excess water, to try to reestablish the normal osmotic gradients that exist across the cell membranes. The water-induced swelling and stress then began to induce release of aspartate by the cells, and the amount of aspartate released by the swollen astrocyte cells was measured by removing the buffer every 5 minutes and testing it in a scintillation counter.

| SMILES | IC50 | Comparative potency | Fold potency versus L-644,711 |
| --- | --- | --- | --- |
| CCC[C@]12CCC(=O)C=C1c1c(cc(OCC(=O)NCC(OC)OC)c(Cl)c1Cl)C2 [GERI-AmE1, R(+)-N-[2,2-(dimethoxy)-ethyl][(5,6-dichloro-2,3,9,9a-tetrahydro-3-oxo-9a-propyl-1H-fluoren-7-yl)oxy]acetamide] | 19.4 µM | 1,358% | – |
| CCC[C@]12CCC(=O)C=C1c1c(cc(OCC(=O)NCc3ccccc3)c(Cl)c1Cl)C2 [GERI-AmE3, R(+)-N-benzyl-[(5,6-dichloro-2,3,9,9a-tetrahydro-3-oxo-9a-propyl-1H-fluoren-7-yl)oxy]acetamide] | 31.9 µM | 826% | – |
| CCC[C@]12CCC(=O)C=C1c1c(cc(OCC(=O)NCc3ccccn3)c(Cl)c1Cl)C2 [GERI-AmE4, R(+)-N-[(2-pyridylmethyl][5,6-dichloro-2,3,9,9a-tetrahydro-3-oxo-9a-propyl-1H-fluoren-7-yl)oxy]acetamide] | 11.6 µM | 2,272% | – |
| CCC[C@]12CCC(=O)C=C1c1c(cc(OCC(=O)NCCCn3ccnc3)c(Cl)c1Cl)C2 [GERI-AmE5, R(+)-N-[3-(1-imidazolyl)-propyl][(5,6-dichloro-2,3,9,9a-tetrahydro-3-oxo-9a-propyl-1H-fluoren-7-yl)oxy]acetamide] | 39.8 µM | 662% | ~7 fold |
| CCC[C@]12CCC(=O)C=C1c1c(cc(OCC(CO)(CO)CO)c(Cl)c1Cl)C2 [GERI-E1, R-(+)-5,6-dichloro-7-[3-hydroxy-2,2-bis-(hydroxymethyl)propyloxy]-9a-propyl-2,3,9,9a-tetrahydro-1H-fluoren-3-one] | 29.5 µM | 893% | – |
| CCC[C@]12CCC(=O)C=C1c1c(cc(OCc3ccccc3C(=O)O)c(Cl)c1Cl)C2 [GERI-E3, Sodium R(+)-2-[(5,6-dichloro-2 3,9,9a-tetrahydro-3-oxo-9a-propyl-1H-fluoren-7-yl)oxymethyl]benzoate] | 7.9 µM | 3,335% | – |
| CCC[C@]12CCC(=O)C=C1c1c(cc(OCc3cccc(C(=O)O)c3)c(Cl)c1Cl)C2 [GERI-E4, Sodium R(+)-3-[(5,6-dichloro-2,3 9,9a-tetrahydro-3-oxo-9a-propyl-1H-fluoren-7-yl)oxymethyl]benzoate] | 7.8 µM | 3,378% | ~34 fold |
| CCC[C@]12CCC(=O)C=C1c1c(cc(OCc3ccc(C(=O)O)cc3)c(Cl)c1Cl)C2 [GERI-E5, Sodium R(+)-4-[(5,6-dichloro-2,3,9,9a-tetrahydro-3-oxo-9a-propyl-1H-fluoren-7-yl)oxymethyl]benzoate] | 8 µM | 3,294% | – |
| CCC[C@]12CCC(=O)C=C1c1c(cc(OCOC(C)=O)c(Cl)c1Cl)C2 [GERI-E13, R-(+)-7-(acetoxymethoxy)-5,6-dichloro-9a-propyl-2,3,9,9a-tetrahydro-1H-fluoren-3-one] | 19.2 µM | 1,372% | – |
| CCC[C@]12CCC(=O)C=C1c1c(cc(OC(C)=O)c(Cl)c1Cl)C2 [GERI-Est1, R-(+)-7-acetoxy-5,6-dichloro-9a-propyl-2,3,9,9a-tetrahydro-1H-fluoren-3-one] | 13.9 µM | 1,896% | – |
| CCC[C@]12CCC(=O)C=C1c1c(cc(OCC(=O)O)c(Cl)c1Cl)C2 [L-644,711, R(+)-[(5,6-dichloro-2,3,9,9a-tetrahydro-3-oxo-9a-propyl-1H-fluoren-7-yl)oxy]acetic acid, reference compound] | 264 µM | – | – |
